Laboratory results taken from patent publication US5441950A, “Substituted dibenzoxazepine and dibenzthiazepine carbamate compounds, pharmaceutical compositions and methods of use” (G. D. Searle & Co., priority 1994, dated 1995).
Counter-ions that a name gives are not always drawn. Like-named read-outs stand apart in the source and are kept apart here.

Tests used:
[1] = target: T1, prostaglandin E2 -induced contractions of segments of guinea pig ileum (Cavia porcellus, UniProt A0A286XHJ6); experiment: Prostaglandin (PGE) Antagonism Assay (prostaglandin E2-induced contractions of guinea pig ileum segments); settings: for PGE in guinea pig ileum, dose ratio: dose ratio of prostaglandin E2 EC50 doses, initial test concentration 3 micromolar
T1 construct: The ilea were then quickly removed from the guinea pigs; from tissue; host or cells: guinea pig ileum segments (male albino guinea pigs)
T1 sequence (A0A286XHJ6 1-405): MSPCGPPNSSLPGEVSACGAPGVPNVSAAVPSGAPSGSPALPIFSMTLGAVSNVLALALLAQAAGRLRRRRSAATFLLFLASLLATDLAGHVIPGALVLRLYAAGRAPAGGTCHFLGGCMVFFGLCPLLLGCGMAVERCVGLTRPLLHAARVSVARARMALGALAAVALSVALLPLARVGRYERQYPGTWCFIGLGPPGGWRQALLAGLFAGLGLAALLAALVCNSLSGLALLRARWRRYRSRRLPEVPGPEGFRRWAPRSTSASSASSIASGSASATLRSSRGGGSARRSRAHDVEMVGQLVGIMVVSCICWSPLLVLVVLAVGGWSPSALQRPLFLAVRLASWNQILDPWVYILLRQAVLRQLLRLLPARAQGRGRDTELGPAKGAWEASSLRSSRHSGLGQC
Source text: The ilea were then quickly removed from the guinea pigs and placed in a modified Tyrode solution, a solution which is known to those skilled in the art, containing one-half of the usual amount of magnesium ions. […] Data for a control prostaglandin E2 dose response curve plotting concentration of prostaglandin E2 versus the intensity of contractions, detected isotonically, was then obtained by experimentally adjusting the dose of the prostaglandin E2 being injected into the tissue bath, in a manner known by those of skill in the art. Solutions or suspensions containing an initial concentration (3 micromolar) of a test compound in modified Tyrode solution ("test solutions/suspensions") were then separately substituted for the control bath solution. Each test solution/suspension was then kept in constant contact with the ileum tissue, except for brief periods to drain the bath in preparation for rinsing with fresh test solution/suspension. A second prostaglandin E2 dose response curve was then generated for prostaglandin E2 in the presence of a test compound. A dose ratio of EC50 doses was then calculated from the results of each test in a manner known by those of skill in the art.

[2] = test system: mice; experiment: Writhing Assay (PBQ-induced writhing, analgesia, intragastric); type: in vivo, mouse (Charles River male albino mice); settings: for responders at 30 mg/kg: ip, 0.5 h, read-out: WRITHING ASSAY, number of mice out of nine or ten in which the test compound produced analgesia
Source text: The Writhing Assay is one of the most widely-used experimental procedures for measuring the analgesic activity of different narcotic and nonnarcotic analgesic agents, and involves the continuous, chemically-induced pain of visceral origin to an animal, such as a mouse or rat. [Gyires et al., Arch. int. […] Chemicals which may be used to induce this pain include phenylbenzoquinone (PBQ) and acetic acid. As a result of the chemical irritation to the animal, a characteristic stretching and writhing of the animal (dorsiflexion of the animal's back, extension of its hindlimbs and the strong contraction of its abdominal musculature) will generally occur. […] Drugs which reduce the number of writhes of the animal appear to restore the normal nociceptive threshold of the animal. […] Charles River male albino mice, weighing 20 to 30 grams, were used in this assay. […] Ten mice which were given saline in place of a test compound of the invention were used as a control group. Five minutes later, each mouse was individually placed into a glass beaker for observation, and the number of writhes occurring during the following ten-minute period was counted. […] The standard initial screening dose of a test compound employed in this assay was 30 mpk […].

[3] = Mus musculus, 30 mg per kilogram, I.G., 30 min before PBQ i.p., writhes <= one-half the control median

SMILES | PGE in guinea pig ileum, dose ratio [1] | responders at 30 mg/kg [2, 3] | further results
O=C(CNC(=O)N1Cc2ccccc2Oc2ccc(Cl)cc21)NCc1ccncc1 [Example 6, 8-chloro-N-[[[(4-pyridinylmethyl)amino]carbonyl]methyl]-10(11H)-dibenz[b,f][1,4]oxazepinecarboxamide, hydrochloride] |  | 60% | Kb ([1]; Schild plot, prostaglandin E2-induced contractions, read-out: PGE in guinea pig ileum, pA2 (converted)): 955 nM
Cl.O=C(CNC(=O)N1Cc2ccccc2Oc2ccc(Cl)cc21)NCCc1ccccn1 [Example 8, 8-chloro-N-[[[[2-(2-pyridinyl)ethyl]amino]carbonyl]methyl]-10(11H) dibenz[b,f][1,4]oxazepinecarboxamide hydrochloride] | 11.02 | 30% | 
O=C(OCCCc1ccncc1)N1Cc2ccccc2Oc2ccc(Cl)cc21 [Example 10, 3-(4-pyridinyl)propyl 8-chloro-10(11H)dibenz[b,f][1,4]oxazepinecarboxylate,monohydrochloride] | 2.63 | 30% | 
CN(C)Cc1ccc(COC(=O)N2Cc3ccccc3Oc3ccc(Cl)cc32)o1 [Example 12, [2-(dimethylaminomethyl)furan-5-yl]methyl-8-chlorodibenz[b,f][1,4]oxazepine-10(11H)carboxylate, monohydrochloride] |  | 20% | 
O=C(OCCCNCc1ccncc1)N1Cc2ccccc2Oc2ccc(Cl)cc21 [Example 14, 3-[[(4-pyridinyl)methyl]amino]propyl-8-chlorodibenz[b, f][1,4]oxazepine-10(11H)carboxylate, hydrochloride] | 25.03 | 50% | 
O.O=C(NCc1nn[nH]n1)N1Cc2ccccc2Oc2ccc(Cl)cc21.[Na] [Example 20, 8-chloro-N-[(2H-tetrazol-5-yl)methyl]dibenz[b,f][1,4]oxazepine-10(11H)-carboxamide, sodium salt, hydrate] | 1.80 |  | responders at 30 mg/kg ([2]; Mus musculus): 20%
CCN(CC)CCCCCOC(=O)N1Cc2ccccc2Oc2ccc(Cl)cc21 [Example 29, 5-(diethylamino)pentyl 8-chlorodibenz[b,f][1,4]oxazepine-10(11H)-carboxylate] |  | 70% | potency in the Writhing Assay (in words) ([2]; mice, I.G.): most potent compound of the invention tested in this assay
COC(=O)[C@@H](C)NC(=O)N1Cc2ccccc2Oc2ccc(Cl)cc21 [Example 31, methyl (D)-2R-[[(8-chlorodibenz[b,f][1,4]oxazepine-10(11H)-yl)carbonyl]amino]propanoate] | 1.4 | 80% | 
COC(=O)[C@H](C)NC(=O)N1Cc2ccccc2Oc2ccc(Cl)cc21 [Example 32, methyl (L)-2R-[[(8-chlorodibenz[b,f][1,4]oxazepine-10-(11H)-yl)carbonyl]amino]propanoate] | 3.5 |  | ED50 ([2]; Mus musculus, po, I.G., mice, PBQ, read-out: WRITHING ASSAY, ED50 Dose): 7.2 mg/kg
O=C(OCc1ccccc1)N1Cc2ccccc2Oc2ccc(Cl)cc21 [Example 43, phenylmethyl 8-chlorodibenz[b,f][1,4]oxazepine-10(11H)-carboxylate] | 0.3 |  | 
O=C(OCc1ccncc1)N1Cc2ccccc2Oc2ccc(Cl)cc21 [Example 44, (4-pyridinyl)methyl 8-chlorodibenz[b,f][1,4]oxazepine-10(11H)-carboxylate] | 365 |  | 
O=C(NCc1cccnc1)N1Cc2ccccc2Oc2ccc(Cl)cc21 [Example 46, 8-chloro-N-(3-pyridinylmethyl)dibenz[b,f]oxazepine-10(11H)-carboxamide, monohydrochloride] | 2.7 | 40% | 
O=C(NCc1ccccn1)N1Cc2ccccc2Oc2ccc(Cl)cc21 [Example 47, 8-chloro-N-(2-pyridinylmethyl)dibenz[b,f][1,4]oxazepine-10(11H)-carboxamide, monohydrochloride] |  | 80% | 

Further lines, with some results ahead:

PGE in guinea pig ileum, dose ratio [1] | SMILES | responders at 30 mg/kg [2, 3] | further results
1.70 | O=C(CNC(=O)N1Cc2ccccc2Oc2ccc(Cl)cc21)Nc1ccncc1 [Example 16, 8-chloro-N-[[[(4-pyridinyl)amino]carbonyl]methyl]dibenz[b,f][1,4]oxazepine-10(11H)carboxamide, monohydrochloride] | 80% | 
2.6 | CC(C)(CNC(=O)OCc1ccccc1)NC(=O)N1Cc2ccccc2Oc2ccc(Cl)cc21 [Example 18, phenylmethyl N-[2-[[(8-chlorodibenz[b,f][1,4]oxazepine-10(11H)-yl]carbonyl]amino]-2-methylpropyl]carbamate] | 40% | 
7.9 | O=C(NCCCCc1ccncc1)N1Cc2ccccc2Oc2ccc(Cl)cc21 [Example 24, 8-chloro-N-[4-(4-pyridinyl)butyl]dibenz[b,f][1,4]oxazepine-10(11H)-carboxamide] | 60% | 
2.0 | CC(C)(CNC(=O)c1ccncc1)NC(=O)N1Cc2ccccc2Oc2ccc(Cl)cc21 [Example 28, 8-chloro-N-[2-[[(4-pyridinyl)carbonyl]amino-1,1-dimethylethyl]dibenz[b,f][1,4]oxazepine-10(11H)carboxamide, hydrochloride hydrate] | 20% | 
2.0 | C[C@@H](NC(=O)N1Cc2ccccc2Oc2ccc(Cl)cc21)C(=O)O [Example 33, (D)-2R-[[(8-chlorodibenz[b,f][1,4]oxazepine-10(11H)yl)carbonyl]amino]propanoic acid] | 60% | 
1.7 | C[C@H](NC(=O)N1Cc2ccccc2Oc2ccc(Cl)cc21)C(=O)O [Example 34, (L)-2S-[[(8-chlorodibenz[b,f][1,4]oxazepine-10(11H)yl)carbonyl]amino]propanoic acid] | 20% | 
1.0 | O=C(NCc1ccncc1)N1Cc2ccccc2Oc2ccc(Cl)cc21 [Example 45, 8-chloro-N-(4-pyridinylmethyl)dibenz[b,f][1,4]oxazepine-10(11H)carboxamide,monohydrochloride] | 60% | 
